# Results taken from ChEMBL document CHEMBL4219121, “Synthesis, antitumor activity and DNA binding features of benzothiazolyl and benzimidazolyl substituted isoindolines” (Bioorg Med Chem, 2018).
# The source made the active and inactive calls. No cut-off for these calls is given here.
# How the values were obtained:
# Calf thymus DNA [1] = assay: Binding affinity to calf thymus DNA assessed as change in melting temperature at drug/DNA ratio of 0.5 by spectrophotmetric method; assay type: nucleic-acid assay; details: Bos taurus
# Calf thymus DNA [2] = assay: Binding affinity to calf thymus DNA assessed as change in melting temperature at drug/DNA ratio of 1 by spectrophotmetric method; assay type: nucleic-acid assay; details: Bos taurus
# Calf thymus DNA [3] = assay: Binding affinity to calf thymus DNA at 50 uM by circular dichroism spectral analysis; assay type: nucleic-acid assay; details: Bos taurus
# [4] = Drug uptake in human Caki2 cells at 50 uM measured after 5 hrs by Phalloidin CruzFluorTM 488 conjugate/propidium iodide staining based fluorescence microscopic analysis; assay type: ADME, cell-based; details: caki-2, 5 h
# [5] = Drug uptake in nucleus of human Caki2 cells at 50 uM measured after 5 hrs by Phalloidin CruzFluorTM 488 conjugate/propidium iodide staining based fluorescence microscopic analysis; assay type: ADME, subcellular; details: caki-2, 5 h
# [6] = Drug uptake in cytoplasm of human Caki2 cells at 50 uM measured after 5 hrs by Phalloidin CruzFluorTM 488 conjugate/propidium iodide staining based fluorescence microscopic analysis; assay type: ADME, subcellular; details: caki-2, 5 h
# CAKI-2 = assay: Cytotoxicity against human Caki2 cells after 72 hrs by MTT assay; assay type: functional, cell-based; details: CAKI-2, 72 h
# MCF7 = assay: Antiproliferative activity against human MCF7 cells after 72 hrs by MTT assay; assay type: functional, cell-based; details: MCF7, 72 h
# SW-620 [7] = assay: Antiproliferative activity against human SW620 cells after 72 hrs by MTT assay; assay type: functional, cell-based; details: SW-620, 72 h
# HepG2 = assay: Antiproliferative activity against human HepG2 cells after 72 hrs by MTT assay; assay type: functional, cell-based; details: HepG2, 72 h
# HeLa [8] = assay: Antiproliferative activity against human HeLa cells after 72 hrs by MTT assay; assay type: functional, cell-based
# BJ = assay: Antiproliferative activity against human BJ cells after 72 hrs by MTT assay; assay type: cell-based
# Calf thymus DNA [9] = assay: Binding affinity to calf thymus DNA assessed as change in melting temperature at drug/DNA ratio of 0.25 by spectrophotmetric method; assay type: nucleic-acid assay; details: Bos taurus
# [10] = molecular target: T1, DNA topoisomerase 1 (Homo sapiens) (UniProt P11387); assay: Inhibition of human topoisomerase1-mediated DNA relaxation assessed as DNA intercalation at 5 to 50 uM using supercoiled pUC19 as substrate pretreated with substrate for 45 mins followed by enzyme addition measured by agarose gel electrophoresis
# T1 sequence (whole entry): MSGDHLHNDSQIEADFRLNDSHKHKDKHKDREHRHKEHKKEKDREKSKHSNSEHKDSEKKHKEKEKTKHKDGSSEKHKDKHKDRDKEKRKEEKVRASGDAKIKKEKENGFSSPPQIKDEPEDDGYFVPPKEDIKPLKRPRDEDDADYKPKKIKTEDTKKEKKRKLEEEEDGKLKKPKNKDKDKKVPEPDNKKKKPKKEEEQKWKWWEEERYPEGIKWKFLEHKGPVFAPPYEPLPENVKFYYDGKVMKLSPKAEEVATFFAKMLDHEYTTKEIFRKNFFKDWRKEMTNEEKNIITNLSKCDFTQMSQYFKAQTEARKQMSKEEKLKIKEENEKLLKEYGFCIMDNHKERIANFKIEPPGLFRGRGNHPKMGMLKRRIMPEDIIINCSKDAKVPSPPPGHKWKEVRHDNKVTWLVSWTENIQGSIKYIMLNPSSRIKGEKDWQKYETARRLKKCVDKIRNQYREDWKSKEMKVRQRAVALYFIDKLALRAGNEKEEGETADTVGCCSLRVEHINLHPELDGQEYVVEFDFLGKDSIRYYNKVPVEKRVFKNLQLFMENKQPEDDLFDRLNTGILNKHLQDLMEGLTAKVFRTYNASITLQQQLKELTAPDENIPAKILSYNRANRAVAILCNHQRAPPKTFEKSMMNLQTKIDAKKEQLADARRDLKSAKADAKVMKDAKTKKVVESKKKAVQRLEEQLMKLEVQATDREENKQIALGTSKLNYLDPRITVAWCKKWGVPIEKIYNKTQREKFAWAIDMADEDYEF
# Calf thymus DNA [11] = assay: Binding affinity to calf thymus DNA at 1 to 25 uM by circular dichroism spectral analysis; assay type: nucleic-acid assay; details: Bos taurus
# [12] = molecular target: T1, DNA topoisomerase 1 (Homo sapiens); assay: Poison activity at human topoisomerase1 assessed as accumulation of nicked DNA at 5 to 50 uM using supercoiled pUC19 as substrate pretreated with substrate for 45 mins followed by enzyme addition measured by agarose gel electrophoresis
# [13] = molecular target: T1, DNA topoisomerase 1 (Homo sapiens); assay: Poison activity at human topoisomerase1 assessed as accumulation of nicked DNA at 50 uM using supercoiled pUC19 as substrate pretreated with substrate for 45 mins followed by enzyme addition measured by agarose gel electrophoresis relative to control
# SW-620 [14] = assay: Induction of apoptosis in human SW620 cells assessed as phenotypic changes after 24 to 48 hrs by microscopic analysis; assay type: functional, cell-based
# HeLa [15] = assay: Induction of apoptosis in human HeLa cells assessed as phenotypic changes after 24 to 48 hrs by microscopic analysis; assay type: functional, cell-based
# HeLa [16] = assay: Cell cycle arrest in human HeLa cells assessed as accumulation at subG1 phase at 1 to 5 uM after 24 hrs by propidium iodide staining based flow cytometric method; assay type: functional
# SW-620 [17] = assay: Cell cycle arrest in human SW620 cells assessed as accumulation at subG1 phase at 1 to 5 uM after 24 hrs by propidium iodide staining based flow cytometric method; assay type: functional
# HeLa [18] = assay: Cell cycle arrest in human HeLa cells assessed as accumulation at subG1 phase at 1 uM after 48 hrs by propidium iodide staining based flow cytometric method (reference value: 17 to 20.1 %); assay type: functional
# HeLa [19] = assay: Cell cycle arrest in human HeLa cells assessed as accumulation at subG1 phase at 5 uM after 48 hrs by propidium iodide staining based flow cytometric method (reference value: 17 to 20.1 %); assay type: functional
# SW-620 [20] = assay: Cell cycle arrest in human SW620 cells assessed as accumulation at subG1 phase at 1 uM after 48 hrs by propidium iodide staining based flow cytometric method (reference value: 4.1 to 11.3 %); assay type: functional
# SW-620 [21] = assay: Cell cycle arrest in human SW620 cells assessed as accumulation at subG1 phase at 5 uM after 48 hrs by propidium iodide staining based flow cytometric method (reference value: 4.1 to 11.3 %); assay type: functional
# HeLa [22] = assay: Induction of apoptosis in human HeLa cells assessed as activation of caspase-8 at 1 uM after 24 to 48 hrs by colorimetric assay; assay type: functional, cell-based
# SW-620 [23] = assay: Induction of apoptosis in human SW620 cells assessed as activation of caspase-8 at 1 uM after 24 to 48 hrs by colorimetric assay; assay type: functional, cell-based
# HeLa [24] = assay: Induction of apoptosis in human HeLa cells assessed as activation of caspase-2 at 1 uM measured after 48 hrs by colorimetric assay; assay type: functional, cell-based
# SW-620 [25] = assay: Induction of apoptosis in human SW620 cells assessed as activation of caspase-2 at 1 uM measured after 48 hrs by colorimetric assay; assay type: functional, cell-based
# SW-620 [26] = assay: Induction of apoptosis in human SW620 cells assessed as activation of caspase-6 at 1 uM measured after 48 hrs by colorimetric assay; assay type: functional, cell-based
# Calf thymus DNA [27] = assay: Binding affinity to calf thymus DNA at 1 to 50 uM by circular dichroism spectral analysis; assay type: nucleic-acid assay; details: Bos taurus
# [28] = molecular target: DNA topoisomerase 2-alpha (Homo sapiens) (UniProt P11388); assay: Poison activity at human topoisomerase2 assessed as accumulation of linear DNA at 10 to 50 uM using supercoiled pUC19 as substrate pretreated with substrate for 45 mins followed by […] measured by ethidium bromide staining based agarose gel electrophoresis
# DNA topoisomerase 2-alpha (Homo sapiens), sequence (P11388 whole entry): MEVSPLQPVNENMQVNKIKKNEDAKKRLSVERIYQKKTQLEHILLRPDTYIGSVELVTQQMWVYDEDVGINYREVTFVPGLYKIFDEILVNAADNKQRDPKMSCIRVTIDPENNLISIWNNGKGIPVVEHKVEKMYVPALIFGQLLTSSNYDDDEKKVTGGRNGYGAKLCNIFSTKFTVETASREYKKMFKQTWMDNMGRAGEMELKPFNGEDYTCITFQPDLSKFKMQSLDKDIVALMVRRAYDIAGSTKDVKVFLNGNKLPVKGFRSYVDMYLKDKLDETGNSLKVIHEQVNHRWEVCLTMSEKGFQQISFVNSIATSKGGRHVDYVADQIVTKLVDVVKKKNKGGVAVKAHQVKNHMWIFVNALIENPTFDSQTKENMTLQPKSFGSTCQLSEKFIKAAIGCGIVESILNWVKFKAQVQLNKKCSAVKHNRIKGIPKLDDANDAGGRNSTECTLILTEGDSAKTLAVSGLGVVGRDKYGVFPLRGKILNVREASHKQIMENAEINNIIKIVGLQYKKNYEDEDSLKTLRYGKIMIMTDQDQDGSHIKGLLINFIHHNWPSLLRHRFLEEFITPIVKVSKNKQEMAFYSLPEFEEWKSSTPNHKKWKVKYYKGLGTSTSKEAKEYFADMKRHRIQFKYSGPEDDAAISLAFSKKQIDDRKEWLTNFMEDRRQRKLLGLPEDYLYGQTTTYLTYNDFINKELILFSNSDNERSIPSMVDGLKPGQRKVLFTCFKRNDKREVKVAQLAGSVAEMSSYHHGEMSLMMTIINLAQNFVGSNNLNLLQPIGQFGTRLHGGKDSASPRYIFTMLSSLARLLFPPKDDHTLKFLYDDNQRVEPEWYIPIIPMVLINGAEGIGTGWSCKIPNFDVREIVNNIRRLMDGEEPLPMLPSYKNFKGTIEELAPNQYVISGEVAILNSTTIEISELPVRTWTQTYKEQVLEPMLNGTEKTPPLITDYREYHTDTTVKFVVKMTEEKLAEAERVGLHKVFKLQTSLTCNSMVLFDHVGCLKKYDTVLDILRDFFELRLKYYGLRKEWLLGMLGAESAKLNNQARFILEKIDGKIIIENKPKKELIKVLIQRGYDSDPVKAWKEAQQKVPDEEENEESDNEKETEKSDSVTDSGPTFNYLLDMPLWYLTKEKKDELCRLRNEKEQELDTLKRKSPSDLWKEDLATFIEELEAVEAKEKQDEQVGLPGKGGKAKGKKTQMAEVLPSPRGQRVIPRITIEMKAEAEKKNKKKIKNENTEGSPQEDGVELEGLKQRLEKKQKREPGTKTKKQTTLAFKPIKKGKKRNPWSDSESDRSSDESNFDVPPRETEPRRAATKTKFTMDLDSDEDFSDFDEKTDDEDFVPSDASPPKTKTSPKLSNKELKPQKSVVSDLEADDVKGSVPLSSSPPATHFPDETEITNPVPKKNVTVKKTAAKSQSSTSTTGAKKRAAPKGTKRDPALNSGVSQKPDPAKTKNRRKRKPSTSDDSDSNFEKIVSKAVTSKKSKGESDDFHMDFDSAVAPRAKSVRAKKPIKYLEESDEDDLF
# [29] = molecular target: T1, DNA topoisomerase 1 (Homo sapiens); assay: Poison activity at human topoisomerase1 assessed as accumulation of nicked DNA at 10 uM using supercoiled pUC19 as substrate pretreated with substrate for 45 mins followed by enzyme addition measured by agarose gel electrophoresis relative to control
# [30] = molecular target: T1, DNA topoisomerase 1 (Homo sapiens); assay: Poison activity at human topoisomerase1 assessed as accumulation of nicked DNA at 20 uM using supercoiled pUC19 as substrate pretreated with substrate for 45 mins followed by enzyme addition measured by agarose gel electrophoresis relative to control
SMILES,ΔTm (Calf thymus DNA [1]) [°C],ΔTm (Calf thymus DNA [2]) [°C],Drug uptake [4],Drug uptake [5],Drug uptake [6],IC50 (CAKI-2) [µM],IC50 (MCF7) [µM],IC50 (SW-620 [7]) [µM],IC50 (HepG2) [µM],IC50 (HeLa [8]) [µM],IC50 (BJ) [µM],ΔTm (Calf thymus DNA [9]) [°C],other results
N#Cc1ccc2nc(/N=C3\c4ccccc4CN3c3nc4ccc(C#N)cc4s3)sc2c1,-1.1,-0.7,Active,Active,Active,21.7,–,–,–,–,–,–,Activity (Calf thymus DNA [3]): inactive
CC(C)NC(=N)c1ccc2nc(/N=C3\c4ccccc4CN3c3nc4ccc(C(=N)NC(C)C)cc4s3)sc2c1.Cl.Cl,18,–,Active,Active,Active,40,90.1,49.5,68.8,52.9,4.72,12.7,inhibition (qualitative) [10]: Active
O=C1c2ccccc2CN1c1nc2ccc(C3=NCCN3)cc2[nH]1,–,–,–,–,–,–,2.9,8.67,16.6,6.12,4.71,–,–
N=C(N)c1ccc2nc(N3Cc4ccccc4C3=O)[nH]c2c1,–,–,–,–,–,–,> 100,> 100,91.1,52.2,46.9,–,–
CC(C)NC(=N)c1ccc2nc(/N=C3\c4ccccc4CN3c3nc4ccc(C(=N)NC(C)C)cc4[nH]3)[nH]c2c1.Cl.Cl,12.9,–,Active,Active,Active,> 100,66.1,> 100,84.8,96.8,> 100,7,Activity (Calf thymus DNA [11]): Active; inhibition (qualitative) [10]: Active; Activity [12]: Active; fold change (FC) [13]: 2.2
c1ccc2c(c1)CN(c1nc3ccccc3[nH]1)/C2=N/c1nc2ccccc2[nH]1,-0.7,-0.5,–,–,–,–,7.47,> 100,7.85,9.32,22.4,-0.6,–
Cl.O=C1c2ccccc2CN1c1nc2ccc(C3=NCCN3)cc2s1,3.1,6.2,Active,Active,Active,1.5,0.7,0.74,0.78,1,0.2,1.8,Activity (SW-620 [14]): Active; Activity (HeLa [15]): Active; Activity (HeLa [16]): inactive; Activity (SW-620 [17]): inactive; Activity (HeLa [18]): 29.1%; Activity (HeLa [19]): 70.7%; Activity (SW-620 [20]): 34.4%; Activity (SW-620 [21]): 85.9%; Activity (HeLa [22]): inactive; Activity (SW-620 [23]): inactive; Activity (HeLa [24]): Active; Activity (SW-620 [25]): Active; Activity (SW-620 [26]): Active; Activity (Calf thymus DNA [27]): Active; Activity [28]: Active
c1ccc2c(c1)CN(c1nc3ccccc3s1)/C2=N/c1nc2ccccc2s1,-1.3,-2.2,Active,Active,Active,11.1,0.08,6.98,0.82,4.68,4.87,–,Activity (Calf thymus DNA [3]): inactive
N#Cc1ccc2nc(N3Cc4ccccc4C3=O)sc2c1,–,–,–,–,–,–,9.93,> 100,61.5,54.7,44.5,–,–
Cl.Cl.c1ccc2c(c1)CN(c1nc3ccc(C4=NCCN4)cc3s1)/C2=N/c1nc2ccc(C3=NCCN3)cc2s1,10.5,12.2,Active,Active,Active,12.6,1.48,> 100,35,74.5,31.8,6.8,Activity (Calf thymus DNA [11]): Active; inhibition (qualitative) [10]: Active; Activity [12]: Active; fold change (FC) [29]: 1.5 to 3.7; fold change (FC) [30]: 3.7 to 9; fold change (FC) [13]: 3.5
CC[C@@]1(O)C(=O)OCc2c1cc1n(c2=O)Cc2cc3ccccc3nc2-1,–,–,–,–,–,–,–,–,–,–,–,–,Activity [12]: Active; fold change (FC) [29]: 2; fold change (FC) [30]: 2.3 to 2.9; fold change (FC) [13]: 2.5 to 3.2
N#Cc1ccc2nc(N3Cc4ccccc4C3=O)[nH]c2c1,–,–,–,–,–,–,5.06,> 100,10,24.1,15.8,–,–
CC(C)NC(=N)c1ccc2nc(N3Cc4ccccc4C3=O)[nH]c2c1,–,–,–,–,–,–,0.93,71,> 100,84.3,5.72,–,–
COc1cc([C@@H]2c3cc4c(cc3[C@@H](O[C@@H]3O[C@@H]5CO[C@@H](C)O[C@H]5[C@H](O)[C@H]3O)[C@H]3COC(=O)[C@H]23)OCO4)cc(OC)c1O,–,–,–,–,–,–,–,–,–,–,–,–,Activity [28]: Active
N#Cc1ccc2nc(/N=C3\c4ccccc4CN3c3nc4ccc(C#N)cc4[nH]3)[nH]c2c1,-0.4,-0.5,Active,Active,Active,> 100,0.02,70,17.9,75.7,> 100,–,Activity (Calf thymus DNA [3]): inactive
